In paper PMC9187652, “Investigating the ligand agonism and antagonism at the D2long receptor by dynamic mass redistribution” (Scientific Reports, 2022):
Where two headings read alike, the source gives them in different places. Marks after values point to notes of the source that are not given here. *1 amine or outer side, *2 acyl side, *3 side chain or, on linkers, in order; H or OH if unused. Where a SMILES comes first, the peptide text is derived from it. Bridges are numbered along the chain shown (N, C = ends). [ ]: non-standard residue; d: D form. The star is where a group is joined. Leu(3R-OH,Nα-propionyl) = CCC(=O)N[C@H](C(=O)*)[C@H](O)C(C)C; X1 = CC(C)[C@@H](O[*:3])[C@H](N[*:1])C(=O)[*:2]; NMeT = CN[C@H](C(=O)O)[C@@H](C)O; dPhLac = O=C(O)[C@H](O)Cc1ccccc1; NMeA = CN[C@@H](C)C(=O)O; NMeDha = C=C(NC)C(=O)O

Assays:
[1] = biological target: D2long receptors; conditions: read-out: EC50 (DMR); cited from earlier work
[2] = test system: CHO-K1 hD2longR cells; type: cell-based, human
[3] = test system: untransfected CHO-K1 cells; test: DMR off-target test in untransfected CHO-K1 cells
[4] = biological target: T1, human dopamine D2long receptor (Homo sapiens, UniProt P14416)
[5] = biological target: T1, human dopamine D2long receptor; remark: listed apart in the source
[6] = biological target: T1, human dopamine D2long receptor; test: cell-based; conditions: CHO-K1, read-out: DMR Emax (%)
[7] = biological target: T2, hD2longR (Homo sapiens, UniProt P14416); type: cell-based
[8] = biological target: T2, hD2longR; conditions: cited from earlier work
[9] = biological target: D2R; conditions: cited from earlier work; for Emax, [35S]GTPγS binding: relative to dopamine
[10] = CHO-K1 hD2longR cells pretreated with the agent (PTX, CTX about 20 h; FR900359 2 h; forskolin 1 μM 40 min; EGTA 2 mM in assay buffer)

T1 sequence (P14416 whole entry): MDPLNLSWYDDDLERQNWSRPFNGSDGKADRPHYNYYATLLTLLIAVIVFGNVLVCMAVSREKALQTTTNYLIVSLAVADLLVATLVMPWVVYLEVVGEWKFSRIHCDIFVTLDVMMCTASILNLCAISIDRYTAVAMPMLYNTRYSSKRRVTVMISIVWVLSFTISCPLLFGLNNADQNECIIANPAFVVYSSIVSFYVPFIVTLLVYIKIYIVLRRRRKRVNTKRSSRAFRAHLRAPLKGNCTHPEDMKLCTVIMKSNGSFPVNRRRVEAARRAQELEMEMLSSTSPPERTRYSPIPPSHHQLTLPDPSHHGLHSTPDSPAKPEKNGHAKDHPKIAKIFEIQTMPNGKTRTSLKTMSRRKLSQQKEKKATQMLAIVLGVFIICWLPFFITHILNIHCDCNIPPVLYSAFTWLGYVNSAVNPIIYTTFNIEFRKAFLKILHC
T2 sequence (P14416 whole entry): as above

## NCCc1ccc(O)c(O)c1 [Dopamine, dopamine]
[1]
  EC50: 11 nM

## O=C(O)CN(CCOCCOCCN(CC(=O)O)CC(=O)O)CC(=O)O [EGTA]
[2]; [10]
  effect on the quinpirole induced DMR response: completely abrogated the quinpirole-induced response

## C=C1C(=O)N[C@@H](C)C(=O)N(C)[C@@H](C)C(=O)N[C@@H]([C@H](OC(=O)[C@@H](NC(=O)CC)[C@H](O)C(C)C)C(C)C)C(=O)N(C)[C@@H]([C@@H](C)OC)C(=O)O[C@H](C(C)C)[C@H](NC(C)=O)C(=O)O[C@H](Cc2ccccc2)C(=O)N1C [FR900359] (Ac-[X1][dPhLac][NMeDha]A[NMeA][X1](Leu(3R-OH,Nα-propionyl))[NMeT](Me); ester 1-C)
[2]
  DMR response induced by the agent alone in CHO-K1 hD2longR cells: did not induce a DMR response
[2]; [10]
  effect on the quinpirole induced DMR response: did not show a pronounced effect

## O=C(CCCN1CCC(O)(c2ccc(Cl)cc2)CC1)c1ccc(F)cc1 [Haloperidol, haloperidol]
[3]
  DMR response in untransfected CHO-K1 cells (off-target activity): slight negative DMR response

## CNc1cc(OC)c(C(=O)NC2CCN(Cc3ccccc3)C2C)cc1Cl (centres unmarked) [Nemonapride, nemonapride]
[4]
  Hill Slope of inhibition curve: −1.95
[3]
  DMR response in untransfected CHO-K1 cells (off-target activity): slight negative DMR response

## CCCN[C@H]1CCc2nc(N)sc2C1 [Pramipexole, pramipexole]
[5]
  quality of action in the DMR assay (full / partial agonist): full agonists
[6]
  Emax: 97 ± 0.1%
[1]
  EC50: 8.7 nM

## CCN1CCC[C@H]1CNC(=O)c1cc(S(N)(=O)=O)ccc1OC [S-(−)-sulpiride]
[4]; antagonist mode, versus 30 nM quinpirole
  Hill Slope of inhibition curve: −1.18

## C=C[C@@]1(C)CC(=O)[C@]2(O)[C@@]3(C)[C@@H](O)CCC(C)(C)[C@@H]3[C@H](O)[C@H](OC(C)=O)[C@@]2(C)O1 [forskolin]
[2]; [10]
  effect on the quinpirole induced DMR response: increase in quinpirole efficacy
[2]; forskolin alone
  time of minimum of the forskolin DMR signal: about 5 min
[2]; without quinpirole, thapsigargin in EGTA (2 mM) containing buffer, forskolin 1 μM
  DMR response induced by the agent alone in CHO-K1 hD2longR cells: negative DMR signal
[7]; forskolin 1 μM for 40 min
  effect on receptor expression ([3H]N-methylspiperone binding): did not exhibit a marked effect on the receptor expression
[7]; forskolin 1 μM for 20 h
  effect on receptor expression ([3H]N-methylspiperone binding): strong increase in specific radioligand binding

## C/C=C(/C)C(=O)O[C@H]1C(C)=C2[C@H]([C@@H]1OC(=O)CCCCCCC)[C@@](C)(OC(C)=O)C[C@H](OC(=O)CCC)[C@@]1(O)[C@H]2OC(=O)[C@@]1(C)O [thapsigargin]
[2]
  DMR response induced by the agent alone in CHO-K1 hD2longR cells: rapidly decreasing negative DMR signal
[2]; EGTA containing assay buffer
  time to plateau of the thapsigargin-induced negative DMR signal: approximately 15 min
[2]; thapsigargin (1 μM or 2 μM, 20 min) in combination with EGTA (2 mM)
  effect on the quinpirole induced DMR response: completely abrogated the quinpirole-induced response

## R-(−)-apomorphine
[5]
  DMR Emax (%): 102 ± 5%
  quality of action in the DMR assay (full / partial agonist): full agonist
[8]
  β-arrestin2 recruitment Emax (%): 87 ± 3^a %
[9]; ref 42
  pEC50, [35S]GTPγS binding: 7.66
  Emax, [35S]GTPγS binding: 53%
[9]; ref 49
  pEC50, [35S]GTPγS binding: 6.76
  Emax, [35S]GTPγS binding: 90%
[3]
  DMR response in untransfected CHO-K1 cells (off-target activity): did not elicit a DMR signal

## cholera toxin [CTX]
[2]
  DMR response induced by the agent alone in CHO-K1 hD2longR cells: did not induce a DMR response
  effect on the quinpirole induced DMR response: apparent increase in quinpirole efficacy
[7]
  effect on receptor expression ([3H]N-methylspiperone binding): slight up-regulation

## pertussis toxin [PTX]
[2]
  DMR response induced by the agent alone in CHO-K1 hD2longR cells: did not induce a DMR response
[2]; [10]
  effect on the quinpirole induced DMR response: concentration-dependent decrease in the DMR response
